Broadly, the melting point is the temperature, or range, at which the solid turns liquid.

Take `CC(C)(C)CC(=O)Nc1cc(-c2ccnc3c(C(=O)c4cccs4)cnn23)ccc1F`: the melting point fell in the range of 180 to 181 °C. In turn, `CN1CCN(c2cc(Cl)cc3c2c(=O)n(-c2ccccc2)c(=O)n3Cc2ccccc2)CC1` displayed a melting point of 111 to 119 °C. `CCC1Cc2cc(OCC(=O)O)c(Cl)c(Cl)c2C1=O` (stereo unspecified) yielded a melting point of 171 to 172 °C. Next, `CCOC(=O)c1cccc2c1Cc1c-2[nH]c2ccc(Br)cc12`: 198 to 200 °C. Regarding `O=c1c2c(CCC(F)(F)F)n[nH]c2c2cccnc2n1-c1ccccc1`, the melting point lay within 272 to 274 °C. The same measure for `O=C(O)c1cn(CCF)c2nc(N3CCNCC3)c(F)cc2c1=O`: 223 to 225 °C; for `CCOC(=O)C(=O)Nc1cccc(OCCO)c1C(N)=O`: 146 to 148 °C. Turning to `Clc1ccc(C2(Cn3cncn3)CCC2)cc1`, the melting point was 124 to 125 °C.

For `CN(C)C=NC(=S)NC1CCN(C(=O)OC(C)(C)C)CC1`, the melting point was 170 °C.

With `COc1ccc(C(=O)c2cc(OC)ccc2O)cc1`, the melting point was 70 to 72 °C.

Turning to `O=S(=O)(c1ccc2ccc(Br)cc2c1)N(Cc1ccccc1)Cc1ccccc1`, the melting point is 127 to 129 °C. With `COc1cc2nc(N)nc(-c3ccccc3Cl)c2cc1OC`, the melting point was in the range of 247 to 280 °C. The same measure for `Oc1cc(Cl)ccc1Oc1ccccc1-c1ncon1`: 124 to 125 °C; for `COc1cc(F)cnc1OCC#Cc1ccc(Cl)nc1`: 101 to 102 °C; for `COCCN(C)Cc1ncc(C(=O)Nc2nc3c(OC)ccc(N4CCOCC4)c3s2)n1C`: 176 to 178 °C. As to `C[C@H](NC(=O)CCS)C(=O)O`, the melting point amounted to 64 °C. The same measure for `COC(=O)c1cccc(CN2CCN(c3nc(C)c(C(C)=O)s3)C2=O)c1`: 122 to 124 °C; for `Cn1cnc(Cc2cccc(CO)c2O)c1`: 139 to 144 °C.

As to `CC12CCC(=O)C=C1CCC1C2CCC2(C)C(C(=O)NC3C4CC5CC(C4)CC3C5)CCC12` (stereo unspecified), the melting point is 244 to 246 °C. Next, `O=C(NC1CCN(C(=O)CCCC2(C(=O)NCC(F)(F)F)c3ccccc3-c3ccccc32)CC1)c1ccccc1Oc1ccccc1`: 96 to 98 °C; `Cc1cc(OC/C=C/c2ccccc2)c(C)c(C)c1NC=O`: 197 to 199 °C; `CCC1Cn2c(ncc(-c3nnn[nH]3)c2=O)-c2ccccc21` (stereo unspecified): 254 to 258 °C. The same measure for `CC(C)c1cccc(C(C)C)c1NC(=O)C1CCCC(Cc2ccccn2)(Cc2ccccn2)C1=O` (stereo unspecified): 70 to 73 °C; for `Oc1ccc(-c2nnc(CSCCOc3ccccc3)s2)cc1`: 127 to 128 °C.

Compound `NNC(=O)c1cnc2c(=O)[nH]c3ccccc3n2c1=O` displayed a melting point above 300 °C.

Consider `Clc1cccnc1N1CCN(c2nc3ccc(Br)cc3[nH]2)CC1`, for which the melting point lay within 207 to 208 °C.

The compound `CCOC(=O)c1sc(N)nc1C(C)C` registered a melting point of 174 to 178 °C. `COc1cccc2c1C(CC(C)=O)NC2=O` (stereo unspecified): the melting point was in the range of 176 to 178 °C. Next, `Cn1c(=O)ccc2cc(COc3cc(F)cc(C4(SC(C)(C)C)CCOCC4)c3)ccc21`: 54 to 56 °C. The same measure for `Cn1ccnc1Sc1ccc(Cl)cc1[N+](=O)[O-]`: 143 to 145 °C. In turn, `Cc1cc2c(c(C=O)c1C)C(C)(C)CCC2(C)C` came in with a melting point of 74 to 80 °C. Next, `O=CN1CCN(C2=C(O)C(=O)c3ccccc3C2=O)CC1`: 200 to 203 °C; `O=C1Nc2ccccc2N(C(=O)Cc2ccccc2)c2cscc21`: 165 to 168 °C. In turn, `COc1cc2c(O)c3c4c(ccnc4c2cc1OC)CCC3` registered a melting point of 218 °C. Turning to `O=c1[nH]c2ccc(Br)cc2c(-c2ccccc2)[n+]1[O-]`, the melting point was in the range of 275 to 276 °C. The same measure for `COC(=O)C1=C(C)NC(C)=C(C(=O)OCCCCl)C1c1cccc([N+](=O)[O-])c1` (stereo unspecified): 125 to 130 °C.

Values taken from a melting point compilation (Tetko et al.; mined from patent text by program, amines drawn as free bases though some values may be those of a salt).
